Experimental data published in article PMC10931745 (International Journal of Molecular Sciences, 2024).

Assay: DPPH radical scavenging assay
Format: biochemical
Procedure: The radical scavenging properties of the complexes on the 1,1-diphenyl-2-picrylhydrazil (DPPH) radical were evaluated as previously described.
All the complexes were used at different concentrations (10, 25, 50, 100, and 200 µg/mL) and the DPPH radical scavenging activity, measured at 517 nm using a microplate reader, was expressed as inhibition percentages (%IDPPH) compared to the initial concentration of DPPH (control) according to the following expression:(2) IDPPH (%)=ABSCTRL−ABSsample/ABSCTRL∗100 where ABSCTRL and ABSsample are the absorbance at 517 nm in the control and in the presence of samples, respectively.
The obtained IDPPH percentages allowed us to calculate the IC50 values using Graph-Pad Prism 9 software (GraphPad Inc., San Diego, CA, USA). Trolox was employed as a positive control, while caffeine and theophylline were reference compounds.

Row | IC50 [µM] | Compound
1 | > 500 | CC(=O)[O][Ag-][c]1n(C)c2c(c(=O)n(C)c(=O)n2C)[n+]1C1CCCCC1O (centres unmarked) [AgL2OAc, 1,3,7-Trimethylxanthin-9-[cyclohexan-2-ol-8-ylidene]Ag(I) Acetate]
2 | > 500 | Cn1c(=O)c2c(n(C)[c]([Au-][I])[n+]2CC(O)c2ccccc2)n(C)c1=O (racemic) [AuL1, 1,3,7-Trimethylxanthin-9-[(2-hydroxy-2-phenyl)ethyl-8-ylidene]Au(I) Iodide]
